{
  "source": "patent US20100113599A1",
  "about": "“AMPHIPATHIC CARBOXYLATES FOR THE TREATMENT OF IMMUNE-RELATED DISORDERS” (Syndromex Ltd. c/o Yissum Research Development Company, of, priority 2007, published 2010)",
  "key": {"[1]": {"test_system": "HT29 colon cancer cells", "assay": "BrdU incorporation assay in HT29 colon cancer cells", "format": "cell-based", "conditions": "200 μM", "procedure": "(§1) Cells were cultured in Dulbecco's Modified Eagle Medium (DMEM) supplemented with 10% fetal calf serum, glutamine and antibiotics (100,000 units/L penicillin and 100 mg/L streptomycin sulfate).\n(§2) The involvement of MEDICA drugs in signal transduction pathways related to immuno-modulatory mechanisms have led the inventors to further investigate the effect of the MEDICA drugs in different disorders associated with abnormal immune reaction. Since cancerous processes may be promoted as a result of interruption of the Th1/Th2 balance, the possible beneficial effect of the MEDICA drugs on tumor proliferation and progression have been next examined. The effect of different concentrations M16αα on cell proliferation was first examined in vitro using the HT29 colon cancer cells as a model for colon cancer. Cells were cultured in the presence of different concentrations of M16αα (50, 100, and 200 μM). Samples obtained from days 1, 2, 3 and 6 were analyzed for cell number using the trypan blue exclusion assay. Proliferation was measured by BrdU incorporation assay."}, "[2]": {"test_system": "RPMI8226 cells", "assay": "Growth of Multiple Myeloma RPMI8226 cells, Trypan Blue exclusion", "format": "cell-based", "conditions": "200 μM, from day one", "procedure": "Growth Suppression by M16αα of Multiple Myeloma (MM) cells. MM cells were incubated in RPMI 1640 medium in the presence of added M16αα as indicated. Cell number was determined daily by Trypan Blue exclusion.\nThe inhibitory effect of MEDICA drugs on colon tumor cell proliferation, presumably via activation of apoptosis, encouraged the inventors to further investigate the potential beneficial effect of these compounds on other malignancies. The inventors therefore next examined the effect of the MEDICA drugs using the Multiple myeloma model. U-266 and RPMI-8226 cell lines served as cell models for MM. MM cells were incubated in RPMI 1640 medium in the presence of M16αα as indicated. Cell number was determined daily by Trypan Blue exclusion assay. […] It should be noted that generally, these cells were more sensitive even to lower concentrations of M16αα."}, "[3]": {"test_system": "Experimental Autoimmune Encephalomyelitis (EAE)", "assay": "EAE (MOG35-55) model for MS, clinical score", "format": "in vivo, female C57BL/6 mice", "conditions": "for day of fully established EAE: control day 24"}, "[4]": {"test_system": "STAT3, GP130", "assay": "STAT3 activation and GP130 in stimulated spleen cells of treated EAE mice (Western blot)", "format": "in vivo", "conditions": "EAE mice 60 mg/kg/day 12 days by gavage", "procedure": "To further investigate the preventive potential of MEDICA drugs, and specifically of M16αα on EAE model, the effect of these drugs on different pathways involving activation of the immune system have been next examined. Therefore, female mice were treated with M16αα (60 mg/kg/day) or vehicle (1% CMC, the control group) for 12 days by gavage. On the third day EAE has been induced by injection of the MOG35-55 peptide. Nine days following MOG35-55 peptide immunization, mice were anesthesized and sacrificed. Spleenocytes were prepared and were stimulated in vitro with either MOG (100 μg/ml) or LPS (50 μg/ml) and the activation of STAT3 was analyzed by Western blot using anti p-STAT3 (Y705) and anti GP130 antibodies. Liver was immediately frozen in liquid nitrogen and kept at −70 until used for protein and RNA preparation. Total RNA was prepared and analyzed by real time PCR for SAP, SAA, α-fibrinogen and IL-6 gene expression."}, "[5]": {"test_system": "STAT3", "assay": "LIF- or IL-6-induced STAT3 phosphorylation in HepG2 cells (Western blot)", "format": "cell-based, human", "procedure": "(§3) MEDICA drugs inhibit LIF-induced STAT3 phosphorylation. HepG2 cells were incubated with M16αα (200 μM) for 17 and 24 h. At each time point LIF (20 ng/ml) was added for the last 20 minutes (for protein) or for the last 3 h (for mRNA). Western blots of cell lysates were reacted with anti gp130 and anti P-STAT3 (Y705) antibodies and normalized by β-actin.\n(§4) MEDICA drugs inhibit IL-6-induced STAT3 phosphorylation. HepG2 cells were incubated for 40 h with […] M16αα. IL-6 (20 ng/ml) was added for the last 15 h. Western blots of cell lysates were reacted, with anti GP-130, anti STAT3, anti P-STAT3 (Y705) and anti P-STAT3 (S727) antibodies and normalized by β-actin. Abbreviations: cont. (control), dim. (dimer), Tot. (total), mono. (monomer).\nThe examined effect of MEDICA drugs on expression of APP, was further analyzed by analyzing the effect of M16αα on downstream elements in the signaling pathway leading to expression of APP. Signal Transducers and Activators of Transcription 3 (STAT3), is a transcription factor phosphorylated by JAK kinases in response to cytokine activation of a cell surface receptor tyrosine kinases. Cytokines that activate STAT3 include growth hormone, IL-6 family cytokines, Oncostatin, LIF, CNTF and G-CSF, Leptin and others. As illustrated by FIG. 1, upon cytokine activation, the STAT3 proteins dimerize and are localized to the nucleus where they activate transcription of APP as well as of other cytokine-responsive genes coding for cell survival, growth and proliferation. Therefore, the inventors next examined whether the effect of MEDICA drugs on the expression of APP is a result of interfering with STAT3 transcription activity or whether MEDICA drugs are involved in a more upstream element of the transduction pathway such as the gp130 receptor. Since dimerization and activation of STAT3 is dependent on its phosphorylation in both, tyrosine 705 (pY^705) and serine 727 (pS^727) residues, the inventors next examined the effect of M16αα on the phosphorylation of STAT3. Thus, HepG2 cells were incubated with M16αα (200 μM) for 17 and 24 h. […]"}, "[6]": {"test_system": "HT29 colon cancer cells", "assay": "HT29 cell number, trypan blue exclusion assay", "format": "cell-based", "conditions": "200 μM, days 1, 2, 3 and 6", "procedure": "Abbreviations: D. (days) cont, (control), RCN (relative cell number).\nas §1, §2"}, "[7]": {"test_system": "gp130", "assay": "gp130 protein levels in HepG2 cells (Western blot)", "format": "cell-based, human", "conditions": "200 μM for 17 and 24 h, LIF 20 ng/ml", "procedure": "as §3, §4\nThe examined effect of MEDICA drugs on expression of APP, was further analyzed by analyzing the effect of M16αα on downstream elements in the signaling pathway leading to expression of APP. Signal Transducers and Activators of Transcription 3 (STAT3), is a transcription factor phosphorylated by JAK kinases in response to cytokine activation of a cell surface receptor tyrosine kinases. Cytokines that activate STAT3 include growth hormone, IL-6 family cytokines, Oncostatin, LIF, CNTF and G-CSF, Leptin and others. […]"}, "[8]": {"conditions": "200 mM M16αα 40 h, IL-6 20 ng/ml last 15 h"}},
  "data": [
    {"smiles": "CC(C)(CCCCCCCCCCCCC(C)(C)C(=O)O)C(=O)O", "note": "[M16αα, 2,2,15,15-tetramethyl-hexadecanedioic acid]", "values": [
      {"measurement": "BrdU incorporation", "setting": "[1]", "result": "significantly reduces"},
      {"measurement": "cell number relative to control", "setting": "[2]", "result": "about 20 % of control"},
      {"measurement": "average maximal clinical score", "setting": "[3]; Preventive Group A: 30 mg/kg BW daily from three days prior to MOG challenge to day 37, control group D 4.3", "result": 1.3},
      {"measurement": "average maximal clinical score upon termination of treatment", "setting": "[3]; Preventive Group A: after termination of treatment (vehicle day 37 to day 52), control group D 4.3", "result": "~2.0"},
      {"measurement": "average maximal clinical score", "setting": "[3]; group B: 30 mg/kg BW daily from seventh day following MOG injection to day 52, control group D 4.3", "result": 4.3},
      {"measurement": "day of fully established EAE", "setting": "[3]; group B: 30 mg/kg BW daily from seventh day to day 52", "result": 40, "unit": "days"},
      {"measurement": "day of fully established EAE", "setting": "[3]; group C: 30 mg/kg BW daily from first day to day 52", "result": 40, "unit": "days"},
      {"measurement": "average maximal clinical score", "setting": "[3]; group C: 30 mg/kg BW daily from first day to day 52, control group D 4.3", "result": 3.8},
      {"measurement": "LPS-induced STAT3 (p-STAT3 Y705) in spleen cells", "setting": "[4]; spleenocytes stimulated in vitro with LPS 50 μg/ml", "result": "not the LPS-induced STAT3 is suppressed"},
      {"measurement": "MOG-induced STAT3 (p-STAT3 Y705) in spleen cells", "setting": "[4]; spleenocytes stimulated in vitro with MOG 100 μg/ml", "result": "suppressed"},
      {"measurement": "LIF-induced phosphorylation of tyrosine 705 residue of STAT3", "setting": "[5]; 200 μM for 17 and 24 h, LIF 20 ng/ml", "result": "clearly inhibits"},
      {"measurement": "expression of STAT3 (total STAT3)", "setting": "[5]; [8]", "result": "not affected"},
      {"measurement": "phosphorylation of STAT3 serine 727 residue", "setting": "[5]; [8]", "result": "significantly inhibited"},
      {"measurement": "cell number (relative cell number)", "setting": "[6]", "result": "significant reduction"},
      {"measurement": "gp130 protein levels", "setting": "[7]", "result": "significantly reduced"}
    ]}
  ]
}
